Laboratory results taken from patent publication US5015637A, “Pyrido[3,4-b]pyrrolo[1,2-e][1,4,5]oxadiazepines” (Hoechst-Roussel Pharmaceutical Inc., priority 1990, dated 1991).

System: Phenylquinone-Induced Writhing in Mice
Experiment: Inhibition of Phenylquinone-Induced Writhing in Mice (PQW)
Type: in vivo, mice (male CD-1 Charles River)
Description: Compounds I of the present invention are also useful as analgesic agents due to their ability to alleviate pain in mammals. […] Exptl. Biol. Med., 95, 729 (1957)].
Inhibition of Phenylquinone-Induced Writhing in Mice (PQW)
A 0.125% concentration of phenyl-p-benzoquinone in a 5% aqueous solution of ethyl alcohol is administered to mice (10 mL/kg, ip). This produces a characteristic "writhe" which is defined as an inward rotation of one or more feet with twisting and turning of the trunk, drawing in of the abdominal wall, lordosis, and arching of the back. A total of 28 male CD-1 Charles River mice (18-30 g) are employed for a time-response. Animals receive food and water ad libitum during their stay in the animal quarters prior to testing. Compounds are tested at 20 mg/kg, sc and are prepared with distilled water, and if insoluble one drop of Tween-80, a surfactant, is added. Compounds are administered in a dosage volume of 10 mL/kg.
Twenty mice (five per group) are administered the test compound at various pretreat time (e.g., 15, 30, 45, and 60 min) prior to phenylquinone injection. Control animals (two per group) receive an equal volume of vehicle. After the administration of phenylquinone, the mice are placed separately into 1-L beakers, and 5 min are allowed to elapse. The mice are then observed for a period of 10 min, and the number of writhes is recorded for each animal. The formula for computing percent inhibition is [formula]
The time period with the maximum percent of inhibition is considered the peak time. A dose-response is reserved for interesting compounds or those which inhibit writhing by 70% or more. A dose-response is run in the same manner as a time-response except 10 animals per group are tested at the peak time of drug activity. Fifty animals, divided among four drug groups and one vehicle control group, are employed. The mice are normally given four doses of drug, each twice the amount of the preceding dose. An ED50 is calculated by a computer linear regression analysis.

| Compound | % Inhibition of Writhing @ 20 mg/kg, s.c. [%] | % Inhibition of Writhing (at the dose of 1.3 mg/kg, s.c. (footnote *)) [%] |
| --- | --- | --- |
| CN1CCC(C2Oc3cnccc3N(C)n3cccc32)CC1 (stereo not drawn) [5-Methyl-10-(1-methyl-4-piperidinyl)-5H,10H-pyrido[3,4-b]pyrrolo[1,2-e][1,4,5]oxadiazepine] | 47 | – |
| CC(C)=CCN1CCC2(C)c3cc(O)ccc3CC1C2C (stereo not drawn) [Pentazocine, reference compound] | – | 50 |
| CN1c2ccncc2OCc2cccn21 [5-Methyl-5H,10H-pyrido[3,4-b]pyrrolo[1,2-e][1,4,5]-oxadiazepine] | 58 | – |
